The values below come from ChEMBL document CHEMBL1201862, “PubChem BioAssay data set” (2004).

Usually EC50 stands for the concentration that produces a half-maximal response. What is called IC50 is the concentration that inhibits the measured activity by half. Broadly, the AC50 is the concentration giving half of the maximal activity seen.

The target in experiment [1] is Peroxisome proliferator-activated receptor gamma/Nuclear receptor coactivator 1 (Homo sapiens, UniProt P37231). It is filed as functional.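 Further: agonist potency as compounds enhance coactivator SRC-1 recruitment to PPARgamma.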
Peroxisome proliferator-activated receptor gamma/Nuclear receptor coactivator 1, sequence (P37231 whole entry): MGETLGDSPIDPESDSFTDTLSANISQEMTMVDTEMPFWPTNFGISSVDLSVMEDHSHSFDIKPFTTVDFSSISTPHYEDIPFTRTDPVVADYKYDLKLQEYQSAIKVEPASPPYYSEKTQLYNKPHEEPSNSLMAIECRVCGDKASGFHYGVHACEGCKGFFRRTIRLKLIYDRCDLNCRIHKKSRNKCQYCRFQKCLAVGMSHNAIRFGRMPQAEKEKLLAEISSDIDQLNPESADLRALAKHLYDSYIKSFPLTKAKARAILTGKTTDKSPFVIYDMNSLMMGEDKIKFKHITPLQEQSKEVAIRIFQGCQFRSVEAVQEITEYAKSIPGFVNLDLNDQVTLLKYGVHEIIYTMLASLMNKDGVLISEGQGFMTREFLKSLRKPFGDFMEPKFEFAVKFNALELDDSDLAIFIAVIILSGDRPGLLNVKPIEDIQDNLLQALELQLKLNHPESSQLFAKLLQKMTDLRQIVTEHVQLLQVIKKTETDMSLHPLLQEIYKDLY
Peroxisome proliferator-activated receptor gamma/Nuclear receptor coactivator 1, sequence (Q15788 whole entry, further chain): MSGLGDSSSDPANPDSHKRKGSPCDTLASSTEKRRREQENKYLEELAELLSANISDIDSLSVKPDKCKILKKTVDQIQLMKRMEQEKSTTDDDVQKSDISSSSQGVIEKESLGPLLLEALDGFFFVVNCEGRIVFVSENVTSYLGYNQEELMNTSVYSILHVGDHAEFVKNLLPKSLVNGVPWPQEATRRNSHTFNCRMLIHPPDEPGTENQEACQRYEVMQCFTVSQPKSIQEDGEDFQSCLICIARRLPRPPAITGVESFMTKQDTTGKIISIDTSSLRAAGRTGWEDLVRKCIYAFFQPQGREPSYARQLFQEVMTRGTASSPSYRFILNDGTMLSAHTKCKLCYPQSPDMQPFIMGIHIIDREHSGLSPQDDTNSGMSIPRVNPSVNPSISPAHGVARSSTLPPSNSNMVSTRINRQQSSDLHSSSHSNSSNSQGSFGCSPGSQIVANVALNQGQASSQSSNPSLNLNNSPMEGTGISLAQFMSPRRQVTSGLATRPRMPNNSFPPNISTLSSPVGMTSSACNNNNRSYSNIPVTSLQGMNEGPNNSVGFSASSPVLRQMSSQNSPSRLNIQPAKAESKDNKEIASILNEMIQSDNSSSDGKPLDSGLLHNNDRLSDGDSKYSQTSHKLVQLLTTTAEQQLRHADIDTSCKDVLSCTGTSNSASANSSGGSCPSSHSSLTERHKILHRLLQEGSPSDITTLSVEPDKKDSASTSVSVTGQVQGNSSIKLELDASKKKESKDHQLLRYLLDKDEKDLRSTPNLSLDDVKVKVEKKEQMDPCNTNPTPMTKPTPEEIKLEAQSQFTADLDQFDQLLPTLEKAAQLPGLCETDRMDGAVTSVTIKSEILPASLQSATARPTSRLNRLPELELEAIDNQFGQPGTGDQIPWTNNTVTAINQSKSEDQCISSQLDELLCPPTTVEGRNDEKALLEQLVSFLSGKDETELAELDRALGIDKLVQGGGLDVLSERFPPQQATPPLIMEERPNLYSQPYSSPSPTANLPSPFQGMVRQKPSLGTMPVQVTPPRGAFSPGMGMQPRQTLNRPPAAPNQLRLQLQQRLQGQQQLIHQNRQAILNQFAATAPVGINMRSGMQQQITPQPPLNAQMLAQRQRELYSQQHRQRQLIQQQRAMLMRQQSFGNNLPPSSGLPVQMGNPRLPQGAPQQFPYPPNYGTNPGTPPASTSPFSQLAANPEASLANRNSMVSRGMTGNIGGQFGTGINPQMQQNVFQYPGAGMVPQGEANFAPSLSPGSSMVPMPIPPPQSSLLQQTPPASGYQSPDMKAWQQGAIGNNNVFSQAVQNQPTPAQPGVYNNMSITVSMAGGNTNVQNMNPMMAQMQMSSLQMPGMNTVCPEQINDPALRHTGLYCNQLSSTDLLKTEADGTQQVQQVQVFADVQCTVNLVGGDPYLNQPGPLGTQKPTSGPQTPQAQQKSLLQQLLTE
The target of experiment [2] is Peroxisome proliferator-activated receptor gamma/Nuclear receptor coactivator 3 (Homo sapiens, UniProt P37231). It is filed as functional.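 Further: agonist potency for raising coactivator recruitment to the receptor.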
Peroxisome proliferator-activated receptor gamma/Nuclear receptor coactivator 3, sequence (P37231 whole entry): as the sequence (P37231 whole entry) above
Peroxisome proliferator-activated receptor gamma/Nuclear receptor coactivator 3, sequence (Q9Y6Q9 whole entry, further chain): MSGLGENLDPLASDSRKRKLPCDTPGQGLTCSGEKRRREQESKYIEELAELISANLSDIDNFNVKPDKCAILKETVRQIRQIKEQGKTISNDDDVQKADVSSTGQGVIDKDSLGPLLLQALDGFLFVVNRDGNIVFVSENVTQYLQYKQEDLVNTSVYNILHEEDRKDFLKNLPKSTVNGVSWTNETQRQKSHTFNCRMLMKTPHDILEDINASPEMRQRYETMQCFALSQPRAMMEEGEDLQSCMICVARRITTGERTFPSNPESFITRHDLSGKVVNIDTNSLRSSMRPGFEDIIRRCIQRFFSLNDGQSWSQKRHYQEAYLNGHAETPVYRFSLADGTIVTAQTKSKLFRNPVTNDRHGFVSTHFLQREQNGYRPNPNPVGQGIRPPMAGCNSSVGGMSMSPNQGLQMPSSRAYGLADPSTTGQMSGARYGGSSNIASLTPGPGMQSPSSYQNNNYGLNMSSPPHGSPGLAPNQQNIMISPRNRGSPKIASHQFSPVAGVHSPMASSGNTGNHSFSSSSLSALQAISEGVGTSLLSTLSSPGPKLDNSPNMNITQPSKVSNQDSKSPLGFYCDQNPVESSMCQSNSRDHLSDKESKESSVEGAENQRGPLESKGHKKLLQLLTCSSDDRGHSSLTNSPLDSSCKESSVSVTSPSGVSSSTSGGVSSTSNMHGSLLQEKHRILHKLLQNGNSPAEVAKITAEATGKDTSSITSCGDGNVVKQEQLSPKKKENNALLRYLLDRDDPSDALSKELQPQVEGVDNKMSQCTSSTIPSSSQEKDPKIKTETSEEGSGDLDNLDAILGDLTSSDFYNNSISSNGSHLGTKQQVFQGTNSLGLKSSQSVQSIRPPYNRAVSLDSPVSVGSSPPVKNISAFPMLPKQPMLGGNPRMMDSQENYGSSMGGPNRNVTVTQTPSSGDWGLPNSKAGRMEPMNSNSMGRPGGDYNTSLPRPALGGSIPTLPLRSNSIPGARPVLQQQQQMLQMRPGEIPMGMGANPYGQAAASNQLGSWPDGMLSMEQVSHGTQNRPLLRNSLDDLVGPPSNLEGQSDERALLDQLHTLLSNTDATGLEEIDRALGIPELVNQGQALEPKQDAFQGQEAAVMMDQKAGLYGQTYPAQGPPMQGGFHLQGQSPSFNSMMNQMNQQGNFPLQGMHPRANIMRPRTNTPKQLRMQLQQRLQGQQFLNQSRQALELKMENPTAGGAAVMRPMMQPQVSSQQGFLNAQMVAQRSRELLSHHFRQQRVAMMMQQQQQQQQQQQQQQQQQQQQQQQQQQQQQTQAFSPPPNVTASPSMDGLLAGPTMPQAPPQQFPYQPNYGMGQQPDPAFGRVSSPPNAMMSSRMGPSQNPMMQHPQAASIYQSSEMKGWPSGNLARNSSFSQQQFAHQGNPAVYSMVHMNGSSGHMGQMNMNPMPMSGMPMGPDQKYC
Experiment [3] has as its target Peroxisome proliferator-activated receptor gamma/Nuclear receptor coactivator 2 (Homo sapiens, UniProt P37231). It is filed as functional.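 Further: agonist potency for raising coactivator recruitment to the receptor.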
Experiment [4] has as its system Streptococcus sp. 'group A'. Put plainly: growth inhibition of control SK(-) GAS strain, dose response, counter-screen for streptokinase expression inhibitor project, luminescence, kanamycin, BacTiterGlo, confirmation (AID 1900). It is filed as functional, organism-based.
In experiment [5] the target is T1, Streptokinase A (Streptococcus pyogenes serotype M1, UniProt P10520).
T1 sequence (P10520 whole entry): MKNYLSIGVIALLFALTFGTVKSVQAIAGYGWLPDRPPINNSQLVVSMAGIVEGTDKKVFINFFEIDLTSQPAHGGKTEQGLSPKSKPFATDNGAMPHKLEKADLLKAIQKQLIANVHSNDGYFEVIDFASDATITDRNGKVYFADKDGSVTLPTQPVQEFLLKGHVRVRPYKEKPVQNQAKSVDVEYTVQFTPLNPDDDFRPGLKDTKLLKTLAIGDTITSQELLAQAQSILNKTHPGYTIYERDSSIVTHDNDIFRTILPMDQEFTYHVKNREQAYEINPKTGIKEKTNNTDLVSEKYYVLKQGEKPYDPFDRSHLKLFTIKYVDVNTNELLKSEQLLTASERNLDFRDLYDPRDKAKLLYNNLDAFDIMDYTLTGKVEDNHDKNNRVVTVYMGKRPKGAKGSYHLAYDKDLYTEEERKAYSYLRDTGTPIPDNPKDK
Briefly: S. pyogenes streptokinase expression inhibitors, potency, dose response, plasminogen activation absorbance, OD405 (AID 1914).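 Further: secreted streptokinase activity via plasminogen activation per viability signal from cell pellet.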 In kind it is functional, Streptococcus pyogenes M1 GAS.

The target of experiment [6] is T2, Calpain-2 catalytic subunit (Sus scrofa, UniProt P43367).
T2 sequence (P43367 whole entry): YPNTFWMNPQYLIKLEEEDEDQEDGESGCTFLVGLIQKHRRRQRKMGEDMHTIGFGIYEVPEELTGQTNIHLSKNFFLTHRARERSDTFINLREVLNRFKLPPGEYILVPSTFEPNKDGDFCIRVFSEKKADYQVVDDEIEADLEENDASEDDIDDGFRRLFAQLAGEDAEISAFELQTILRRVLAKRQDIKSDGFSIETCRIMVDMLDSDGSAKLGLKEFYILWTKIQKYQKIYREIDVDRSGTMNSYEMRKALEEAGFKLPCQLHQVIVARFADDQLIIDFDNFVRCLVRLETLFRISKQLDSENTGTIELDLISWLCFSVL
Put plainly: pig calpain II inhibitor potency, dose response, biochemical, fluorogenic peptide substrate (AID 1420). In kind it is functional.

For experiment [7], the system named is Streptococcus. Briefly: Group A Streptococcus viability loss, dose response, counter-screen for streptokinase expression inhibitor project, luminescence, BacTiterGlo (AID 1915).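 Further: potency for reduction of bacterial viability or growth.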 In kind it is functional, organism-based.
Experiment [8] in a line: microbe, parasite or virus in culture. In kind it is functional. The following applies: Mycobacterium tuberculosis.
Experiment [9] concerns the target T3, High affinity choline transporter 1 (Homo sapiens, UniProt Q9GZV3).
T3 sequence (Q9GZV3 whole entry): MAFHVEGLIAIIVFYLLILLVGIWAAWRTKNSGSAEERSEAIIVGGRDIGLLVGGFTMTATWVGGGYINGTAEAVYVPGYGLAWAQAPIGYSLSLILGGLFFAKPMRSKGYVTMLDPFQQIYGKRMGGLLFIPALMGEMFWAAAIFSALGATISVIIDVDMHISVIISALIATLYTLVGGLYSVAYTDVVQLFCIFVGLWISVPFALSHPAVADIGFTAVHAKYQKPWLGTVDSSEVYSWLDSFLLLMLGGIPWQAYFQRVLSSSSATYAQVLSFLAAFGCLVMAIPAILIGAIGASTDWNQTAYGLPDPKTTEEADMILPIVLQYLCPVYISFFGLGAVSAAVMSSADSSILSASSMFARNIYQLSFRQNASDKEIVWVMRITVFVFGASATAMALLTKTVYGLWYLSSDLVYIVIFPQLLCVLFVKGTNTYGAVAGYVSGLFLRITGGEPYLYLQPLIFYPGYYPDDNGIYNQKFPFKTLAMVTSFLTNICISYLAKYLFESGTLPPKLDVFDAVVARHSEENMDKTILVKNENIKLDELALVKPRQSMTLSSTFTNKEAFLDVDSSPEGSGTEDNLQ
Briefly: CHT inhibitors, dose response, cell-based, 5-point CRC, membrane potential dye (AID 504840). In kind it is functional.

Experiment [10] concerns the target Induced myeloid leukemia cell differentiation protein Mcl-1 (Homo sapiens, UniProt Q07820). In kind it is functional.
The nature of experiment [11]: inhibitors of intracellular T. cruzi replication, confirmation, NIH3T3 host cells, beta-gal luminescence (AID 2044).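 Further: intracellular parasites grown in NIH/3T3 mouse fibroblasts as host cells; luminescent beta-galactosidase reporter signal from transgenic T. cruzi replicating inside host cells; inhibitors lower the luminescence signal.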 In kind it is functional, cell-based.
Experiment [12] can be described thus: cytotoxicity toward NIH3T3 fibroblasts, dose response, counter-screen, cell-based, ATP luminescence, mouse fibroblasts (AID 2010).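 Further: cells exposed to compound for about 90 hours before reading.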 It is filed as functional. A general note: Counterscreens check selectivity or assay interference.
Experiment [13] can be described thus: Luminescence Cell-Based Dose Retest to Confirm Inhibitors of Cancer Stem Cells. [Related pubchem assays (depositor defined):AID2717, AID2721]. The following applies: Homo sapiens. In kind it is functional.
The target in experiment [14] is Cytochrome P450 3A4 (Homo sapiens, UniProt P08684).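 Further: CYP3A4 tested as one member of a cytochrome P450 panel screen.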
Cytochrome P450 3A4, sequence (P08684 whole entry): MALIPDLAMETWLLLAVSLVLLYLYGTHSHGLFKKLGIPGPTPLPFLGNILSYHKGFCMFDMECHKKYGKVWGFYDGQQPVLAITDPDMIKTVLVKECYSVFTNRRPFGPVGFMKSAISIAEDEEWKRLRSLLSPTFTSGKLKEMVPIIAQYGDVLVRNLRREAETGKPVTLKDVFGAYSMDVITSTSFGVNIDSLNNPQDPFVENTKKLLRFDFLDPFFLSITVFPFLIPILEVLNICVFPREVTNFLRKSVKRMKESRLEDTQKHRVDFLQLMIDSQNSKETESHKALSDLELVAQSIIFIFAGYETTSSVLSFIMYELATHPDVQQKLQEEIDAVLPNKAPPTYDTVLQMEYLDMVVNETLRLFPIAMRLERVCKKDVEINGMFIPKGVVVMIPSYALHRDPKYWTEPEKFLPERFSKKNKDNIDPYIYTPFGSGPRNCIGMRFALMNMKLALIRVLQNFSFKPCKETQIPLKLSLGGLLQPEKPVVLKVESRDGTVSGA
Experiment [15] has as its target T4, Protein RecA (Mycobacterium tuberculosis, UniProt P9WHJ3).
T4 sequence (P9WHJ3 whole entry): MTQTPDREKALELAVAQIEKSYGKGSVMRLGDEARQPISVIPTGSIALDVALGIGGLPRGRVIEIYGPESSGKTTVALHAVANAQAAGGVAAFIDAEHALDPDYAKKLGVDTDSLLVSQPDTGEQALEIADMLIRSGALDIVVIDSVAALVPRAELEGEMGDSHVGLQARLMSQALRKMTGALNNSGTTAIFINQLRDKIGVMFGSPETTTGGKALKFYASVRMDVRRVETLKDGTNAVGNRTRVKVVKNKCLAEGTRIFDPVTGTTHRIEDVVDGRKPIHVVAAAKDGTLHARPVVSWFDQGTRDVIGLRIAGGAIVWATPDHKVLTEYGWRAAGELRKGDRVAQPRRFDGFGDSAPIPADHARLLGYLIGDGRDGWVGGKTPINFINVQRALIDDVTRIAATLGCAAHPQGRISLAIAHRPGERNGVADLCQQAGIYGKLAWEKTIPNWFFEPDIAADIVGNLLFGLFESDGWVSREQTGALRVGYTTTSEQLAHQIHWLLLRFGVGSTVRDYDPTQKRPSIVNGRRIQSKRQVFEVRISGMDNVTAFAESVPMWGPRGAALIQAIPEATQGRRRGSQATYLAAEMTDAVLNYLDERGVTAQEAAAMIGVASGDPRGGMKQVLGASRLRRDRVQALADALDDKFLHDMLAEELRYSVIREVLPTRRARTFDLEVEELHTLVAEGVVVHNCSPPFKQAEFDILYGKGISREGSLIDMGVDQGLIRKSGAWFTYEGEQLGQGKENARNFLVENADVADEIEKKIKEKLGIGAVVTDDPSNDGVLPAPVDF
Briefly: Fluorescence Cell-Free Homogeneous Dose Retest to Identify Inhibitors of RecA-Intein Splicing Activity. [Related pubchem assays (depositor defined):AID2097, AID2223, AID489010, AID492950]. It is filed as functional.

Experiment [16] concerns the target T5, Mannose-6-phosphate isomerase (Homo sapiens, UniProt P34949).
T5 sequence (P34949 whole entry): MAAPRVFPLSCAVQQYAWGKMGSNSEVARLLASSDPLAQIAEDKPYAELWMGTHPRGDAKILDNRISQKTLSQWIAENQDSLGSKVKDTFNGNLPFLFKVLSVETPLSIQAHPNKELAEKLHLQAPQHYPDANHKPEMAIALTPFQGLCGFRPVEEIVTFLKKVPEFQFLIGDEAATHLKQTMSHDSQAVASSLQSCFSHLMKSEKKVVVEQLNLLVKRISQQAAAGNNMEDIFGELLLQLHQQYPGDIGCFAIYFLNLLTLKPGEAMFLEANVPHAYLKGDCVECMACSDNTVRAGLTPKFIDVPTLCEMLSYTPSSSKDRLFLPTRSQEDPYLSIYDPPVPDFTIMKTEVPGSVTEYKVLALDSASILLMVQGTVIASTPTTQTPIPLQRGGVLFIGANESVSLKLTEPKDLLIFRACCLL
Put plainly: human PMI inhibitors, high substrate, primary screen, biochemical, fluorescence intensity, high mannose 6-phosphate (AID 1220).

The nature of experiment [17]: MC4R antagonists, dose response, counter-screen for LGR2 antagonist project, cell-based, plate reader, cherry pick (AID 743444).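 Further: transfected HEK 293 cells stimulated with alpha-MSH peptide; potency of inhibitors of the alpha-MSH evoked signal.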 It is filed as functional.
The nature of experiment [18]: LGR2 antagonists, dose response, cell-based, HEK293, CRE-luciferase reporter, cherry pick, set 2 (AID 743343).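 Further: transfected cells were stimulated with diluted bursicon conditioned medium after compound addition.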 It is filed as functional.
Experiment [19] in a line: A549 cell cytotoxicity, dose response, cytotoxicity control, plate reader, cherry-pick, antagonist series (AID 743412). It is filed as functional, cell-based.

Calls of active or inactive are those of the source. Bounds are passed on as bounds.

Induced myeloid leukemia cell differentiation protein Mcl-1, sequence (Q07820 whole entry): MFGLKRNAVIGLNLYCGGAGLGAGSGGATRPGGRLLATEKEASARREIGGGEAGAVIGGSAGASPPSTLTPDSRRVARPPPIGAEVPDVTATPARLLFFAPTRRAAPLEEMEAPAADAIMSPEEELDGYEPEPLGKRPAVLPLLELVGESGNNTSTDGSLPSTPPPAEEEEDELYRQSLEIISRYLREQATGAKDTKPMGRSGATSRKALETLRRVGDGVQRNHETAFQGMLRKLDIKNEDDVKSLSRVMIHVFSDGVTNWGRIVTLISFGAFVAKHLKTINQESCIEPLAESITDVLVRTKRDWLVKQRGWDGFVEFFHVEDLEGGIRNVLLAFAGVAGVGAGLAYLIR

`Cc1ccc(NS(=O)(=O)c2ccc(OCC(=O)NCc3cccnc3)cc2)cc1`: the EC50 in [1], in experiment [2] and in [3] was > 79.4 µM (not active) throughout.
Consider `Oc1c(Cl)cc(Cl)cc1C(C#Cc1ccccc1)N1CCOCC1` (stereo not drawn), for which the values for the EC50 in [4], in [5] and in experiment [7] were 16.6 µM (active), 26.8 µM (active) and 48.9 µM (active), respectively. Also, the IC50 in [6] is listed as 12.8 µM (not active).
Regarding `O=C(Nc1cccc(-c2ccc(N3CCCCC3)nn2)c1)c1ccc(Br)o1`, the CC50 in [8] was > 40 µM (active).
For the compound `O=C(NNc1nc(-c2ccccc2)cs1)c1ccccc1`, the IC50 in experiment [9] was 14.5 µM (active). Moreover, the CC50 in experiment [8] is > 40 µM (active).
Take `C=CCn1c(=O)c2ccccc2n2c(SCc3nc(N)nc(Nc4ccccc4C)n3)nnc12`: the EC50 in experiment [1], in [2] and in [3] was > 79.4 µM (not active) throughout.
Take `COc1ccc(Cl)c(N2CCN(CCCNC(=O)Nc3ccc(C)cc3)CC2)c1`: the IC50 in experiment [10] was 6.56 µM (active).
For the compound `Cc1ccc(C(=O)Nc2nnc(-c3cccs3)s2)cc1C`, the EC50 in experiment [1] was 9.78 µM (active); in experiment [2] it was > 79.4 µM (not active); in experiment [3] it was 9.65 µM (active).
Regarding `O=C(NC(=S)NCC1CCCO1)c1ccc(Br)o1` (stereo not drawn), the IC50 in [6] is 1.43 µM (not active).
Turning to `O=C(CCc1ccc(Oc2cc([N+](=O)[O-])cc([N+](=O)[O-])c2)cc1)N1CCCCCC1`, the EC50 was 0.187 µM (active) in [11] and > 30 µM (not active) in [12]. Also, the AC50 in [13] was 4.73 µM (active). Besides, the CC50 in experiment [8] was > 40 µM (active).
On to `COc1ccc(C(=O)N2c3ccccc3CC2C)cc1OC` (stereo not drawn), for which the IC50 in experiment [10] is 0.799 µM (not active).
The same measure, in the same setting: in the case of `CCOc1ccc(-c2ccc(/C=C3/C(=N)N4C=CSC4=NC3=O)o2)c([N+](=O)[O-])c1` it was 1.48 µM (active).
As to `CC1CCCCN1Cc1cnc(Cl)s1` (stereo not drawn), in experiment [6], the IC50 is > 50 µM (not active).
As for `c1ccc(-c2c3c4ccccc4nc-3[nH]c3ccccc23)cc1`, the AC50 in [13] was 2.03 µM (active). The CC50 in experiment [8] is > 40 µM (active).
For the compound `CN1c2ccccc2C(C)(C)C12C=Nc1c(cc(N3CCOCC3)c3ccccc13)O2` (stereo not drawn), the AC50 in [14] is 4.47 µM (inconclusive). Moreover, in [15], the EC50 was 50.5 µM (inconclusive). In experiment [16], the IC50 is recorded as > 50 µM (not active).
Turning to `CCCCOc1ccc(C(=O)N/C(=C/C=C/c2ccccc2)C(=O)O)cc1`, the EC50 in [1], in experiment [2] and in [3] was > 79.4 µM (not active) throughout.
Take `c1ccc(C2=Nn3c(nnc3-c3ccco3)SC2)cc1`: the IC50 in experiment [16] is > 50 µM (not active).
`COc1ccc(C(CC(=O)c2ccccc2)S(=O)(=O)c2ccc(C)cc2)cc1` (stereo not drawn): in experiment [8], the CC50 is > 40 µM (active).
For the compound `CCOC(=O)c1c(N)sc(N)c1C(=O)OCC`, the IC50 in experiment [16] is > 50 µM (not active).
For `O=c1cc(-c2ccccc2)oc2cc(OCc3ccccc3)cc(O)c12`, the IC50 in experiment [6] was > 50 µM (not active).
On the same count and under the same terms, in the case of `CCCCNC(=S)N/N=C1\CCCCc2ccccc21` it was 11.2 µM (not active).
For the compound `Cc1ccc(S(=O)(=O)N(C)C[C@H]2Oc3c(cccc3N(C)C)C(=O)N([C@@H](C)CO)C[C@@H]2C)cc1`, the AC50 in experiment [17] is 0.341 µM (active); in experiment [18], 0.726 µM (active); in [19] it was > 52 µM (inactive).
For the compound `N#C[C@@H]1[C@H](c2ccc(C#CC3CCCCC3)cc2)[C@@H](CO)N1C(=O)c1cccc(F)c1`, the AC50 was 36.1 µM (active) in experiment [17] and 35.8 µM (active) in experiment [19].
